According to patent publication US20260285850A1, “SUBSTITUTED OXAZOLIDINONES AND IMIDAZOLINONES AS HERBICIDES” (FMC CORPORATION, priority 2023, published 2026):

Assays:
Type in all cases: in vivo
[1] = tested on: green foxtail (Setaria viridis); assay: Test A preemergence soil spray, visual injury rating 0-100; conditions: 10 days
Outline: (§1)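 Compounds formulated in a non-phytotoxic solvent with surfactant are sprayed onto soil of freshly planted loam-sand pots ahead of emergence, or onto emerged plants 2-10 cm tall. After a 10-day greenhouse period, each species is scored visually for injury against untreated controls.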

[2] = tested on: ryegrass, Italian (italian ryegrass, Lolium multiflorum); assay: as above; conditions: 10 days
Outline: as §1

[3] = tested on: barnyardgrass (Echinochloa crus-galli); assay: as above; conditions: 10 days
Outline: as §1

[4] = tested on: kochia (Bassia scoparia); assay: as above; conditions: 10 days
Outline: as §1

[5] = tested on: ragweed (common ragweed, Ambrosia artemisiifolia); assay: as above; conditions: 10 days
Outline: as §1

[6] = tested on: oat, wild (wild oat, Avena fatua); assay: as above; conditions: 10 days
Outline: as §1

[7] = tested on: soybean (Glycine max); assay: as above; conditions: 10 days
Outline: as §1

[8] = tested on: blackgrass (Alopecurus myosuroides); assay: as above; conditions: 10 days
Outline: as §1

[9] = tested on: corn (Zea mays); assay: as above; conditions: 10 days
Outline: as §1

[10] = tested on: wheat (Triticum aestivum); assay: as above; conditions: 10 days
Outline: as §1

[11] = tested on: palmer (palmer amaranth, palmer pigweed, Amaranthus palmeri); assay: as above; conditions: 10 days
Outline: as §1

[12] = tested on: green foxtail (Setaria viridis); assay: Test A postemergence application, visual injury rating 0-100
Outline: as §1

[13] = tested on: ryegrass, Italian (italian ryegrass, Lolium multiflorum); assay: as above
Outline: as §1

[14] = tested on: barnyardgrass (Echinochloa crus-galli); assay: as above
Outline: as §1

[15] = tested on: kochia (Bassia scoparia); assay: as above
Outline: as §1

[16] = tested on: ragweed (common ragweed, Ambrosia artemisiifolia); assay: as above
Outline: as §1

[17] = tested on: oat, wild (wild oat, Avena fatua); assay: as above
Outline: as §1

[18] = tested on: soybean (Glycine max); assay: as above
Outline: as §1

[19] = tested on: blackgrass (Alopecurus myosuroides); assay: as above
Outline: as §1

[20] = tested on: corn (Zea mays); assay: as above
Outline: as §1

[21] = tested on: wheat (Triticum aestivum); assay: as above
Outline: as §1

[22] = tested on: palmer (palmer amaranth, palmer pigweed, Amaranthus palmeri); assay: as above
Outline: as §1

[23] = tested on: horseweed (Erigeron canadensis); assay: as above
Outline: as §1

[24] = tested on: galium (catchweed bedstraw, Galium aparine); assay: as above
Outline: as §1

[25] = tested on: ducksalad (Heteranthera limosa); assay: Test B flooded paddy test, visual plant response rating 0-100; conditions: 250 g ai/ha, Flood, applied to paddy water, evaluated after 13 days
Outline: (§2)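 Compounds applied to standing paddy water (3 cm above soil, maintained for the test duration) on 2-leaf-stage plants; visual rating vs controls at 13 days, greenhouse.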

[26] = tested on: rice (Oryza sativa); assay: as above; conditions: 250 g ai/ha, Flood, applied to paddy water, evaluated after 13 days
Outline: as §2

[27] = tested on: sedge, umbrella (small-flower umbrella sedge, Cyperus difformis); assay: as above; conditions: 250 g ai/ha, Flood, applied to paddy water, evaluated after 13 days
Outline: as §2

[28] = tested on: barnyardgrass (Echinochloa crusgalli); assay: as above; conditions: 250 g ai/ha, Flood, applied to paddy water, evaluated after 13 days
Outline: as §2

[29] = 62 g ai/ha, 0 = no effect, 100 = complete control
[30] = 62 g ai/ha, postemergence, 10 days, 0 = no effect, 100 = complete control
[31] = Postemergence, 16 g ai/ha, greenhouse 10 days, 0 no effect, 100 complete control

CC1(C(=O)NC2C=CC(C(=O)O)C2)CN(c2cc(F)cc(F)c2)C(=O)O1 (stereo not shown) [Compound 138]
70: Ryegrass, Italian plant response rating ([2]; 16 g ai/ha, 0 to 100 scale) | Blackgrass plant response rating (0-100) [8, 29] | Barnyardgrass plant response rating (0 to 100 scale) [14, 31] | Blackgrass plant response rating (0 to 100 scale) [19, 31]
50: Oat, Wild plant response rating ([6]; 16 g ai/ha, 0 to 100 scale) | Wheat plant response rating ([10]; 16 g ai/ha, 0 to 100 scale) | Horseweed plant response rating (0 to 100 scale) [23, 31]
60: Barnyardgrass plant response rating ([3]; 16 g ai/ha, 0 to 100 scale) | Corn plant response rating ([9]; 16 g ai/ha, 0 to 100 scale) | Ryegrass, Italian plant response rating (0 to 100 scale) [13, 31] | Ragweed plant response rating (0 to 100 scale) [16, 31] | Soybean plant response rating (0-100) [18, 30] | Soybean plant response rating (0 to 100 scale) [18, 31]
95: Plant response rating, Rice (0 to 100 scale, 0 is no effect and 100 is complete control) [26] | Plant response rating, Sedge, Umbrella (0 to 100 scale, 0 is no effect and 100 is complete control) [27] | Plant response rating, Barnyardgrass (0 to 100 scale, 0 is no effect and 100 is complete control) [28]
100: Barnyardgrass plant response rating (0-100) [3, 29] | Corn plant response rating (0-100) [20, 30] | Corn plant response rating (0 to 100 scale) [20, 31] | Plant response rating, Ducksalad (0 to 100 scale, 0 is no effect and 100 is complete control) [25]
20: Foxtail, Green plant response rating ([1]; 16 g ai/ha, 0 to 100 scale)
40: Ragweed plant response rating (0-100) [5, 29] | Blackgrass plant response rating ([8]; 16 g ai/ha, 0 to 100 scale)
0: Ragweed plant response rating ([5]; 16 g ai/ha, 0 to 100 scale)
80: Soybean plant response rating (0-100) [7, 29] | Foxtail, Green plant response rating (0 to 100 scale) [12, 31] | Barnyardgrass plant response rating (0-100) [14, 30] | Kochia plant response rating (0-100) [15, 30] | Kochia plant response rating (0 to 100 scale) [15, 31] | Ragweed plant response rating (0-100) [16, 30] | Horseweed plant response rating (0-100) [23, 30]
90: Foxtail, Green plant response rating (0-100) [1, 29] | Ryegrass, Italian plant response rating (0-100) [2, 29] | Kochia plant response rating ([4]; 16 g ai/ha, 0 to 100 scale) | Kochia plant response rating (0-100) [4, 29] | Oat, Wild plant response rating (0-100) [6, 29] | Corn plant response rating (0-100) [9, 29] | Wheat plant response rating (0-100) [10, 29] | Pigweed, Palmer plant response rating (0-100) [11, 29] | Foxtail, Green plant response rating (0-100) [12, 30] | Ryegrass, Italian plant response rating (0-100) [13, 30] | Oat, Wild plant response rating (0-100) [17, 30] | Oat, Wild plant response rating (0 to 100 scale) [17, 31] | Blackgrass plant response rating (0-100) [19, 30] | Wheat plant response rating (0-100) [21, 30] | Wheat plant response rating (0 to 100 scale) [21, 31] | Pigweed, Palmer plant response rating (0-100) [22, 30] | Pigweed, Palmer plant response rating (0 to 100 scale) [22, 31] | Galium plant response rating (0-100) [24, 30] | Galium plant response rating (0 to 100 scale) [24, 31]
30: Soybean plant response rating ([7]; 16 g ai/ha, 0 to 100 scale) | Pigweed, Palmer plant response rating ([11]; 16 g ai/ha, 0 to 100 scale)
